{
  "source": "patent US20090074911A1",
  "about": "“Indicia-Bearing Package For Delivery Systems” (CADBURY ADAMS USA LLC, priority 2005, published 2009)",
  "assay": "Discoloration (degradation) of sucralose during encapsulation",
  "format": "physicochemical",
  "description": "As one example of a hydrophilic coating, sucralose was mixed with powdered polyvinyl acetate and 5% fat and extruded at 110° C. […] In an alternative encapsulation, sucralose was mixed with powdered polyvinyl acetate, 2% polyvinylpyrollidone and 1% magnesium stearate and pressed into tablets at 25° C. The tablets were then heated to 80° C., which softened the polymer and fused the polyvinylacetate with the sucralose. […] Thereafter, the tablets were cooled, ground and sized and analyzed. […] As another example, a polymer/sweetener matrix was prepared as described above in this paragraph. A solution of gum arabic was made and coated on the polymer/sweetener matrix particles using the method described in U.S. Pat. No. 3,196,827, the relevant portions of which are incorporated herein by reference. Coating levels were 20, 30, 40, and 50% for different samples. Chewing gums prepared with the coated polymer/sweetener matrix particles were chewed by a panel with bolus collection at 5, 10, 15, 20 minutes. Residual sucralose was analyzed in each chewed bolus.",
  "data": [
    {"molecule": "OC[C@H]1O[C@H](O[C@]2(CCl)O[C@H](CCl)[C@@H](O)[C@@H]2O)[C@H](O)[C@@H](O)[C@H]1Cl", "note": "[sucralose]", "values": [
      {"measurement": "discoloration indicating degradation of the sucralose", "setting": "mixed with powdered polyvinyl acetate and 5% fat, extruded at 110° C.", "result": "Extensive discoloration"},
      {"measurement": "discoloration of the sucralose", "setting": "mixed with powdered polyvinyl acetate, 2% polyvinylpyrollidone, 1% magnesium stearate, pressed into tablets at 25° C., heated to 80° C.", "result": "No discoloration"},
      {"measurement": "discoloration of the sucralose", "setting": "same tablets after being cooled, ground, sized and analyzed", "result": "no discoloration"}
    ]}
  ]
}
